According to patent US20240368145A1, “METHODS FOR TREATING CANCER” (IMMUNIC AG, priority 2021, published 2024):

What was measured:
Format in all cases: cell-based
[1] = test system: IL-17A; assay: Cytokine assay, human PBMC stimulated with PHA: IL-17A; conditions: PHA-activated, 48 hours, read-out: IL-17A inhibition (IC50 range)
Procedure: (§1) Peripheral blood mononuclear cells (PBMC) from healthy human donors were purified using Accuspin™ System-Histopaque-1077 (Sigma) according to the protocol recommended by the manufacturer. Purified PBMC were then washed twice with phosphate-buffered saline (PBS) and resuspended in RPMI1640 culture medium supplemented with 10% dialyzed heat inactivated fetal calf serum, 1.5 mM L-glutamine, 100 U penicillin/mL and […] streptomycin/mL (all from PAN Biotech, Aidenbach, Germany). For stimulation, PBMC were seeded at 1×10^5 cells/well, activated with 2 gg/mL phytohaemagglutinin (PHA, Sigma) and incubated with the test compounds for 48 hours. IL-17A, IL-17F and INFγ were then determined in the culture supernatant using a Luminex BioPlex system, following the manufacturer's instructions (BioRad, Munich, Germany). To determine the IC50, compounds were titrated semilogarithmically.
(§2) Cytokines were determined in the aforementioned culture supernatant using the following methods: IL-17A was measured using the human homodimer IL-17A ELISA Ready Set Go Kit from cBioscience (Frankfurt, Germany); IL-17F using the human IL-17F ELI-Pair from Holzel Diagnostica GmbH (K51n, Germany); and IFNγ using the OptEIA human IFN-g ELISA from BD Bioscience (Heidelberg, Germany), all following the manufacturer's instructions.

[2] = test system: AR-V7 mRNA; assay: Androgen receptor RNA level expression (qRT-PCR) in 22Rv1: AR-V7; conditions: 22Rv1, 1 μM, 48 h; for mrna remaining at 1 µM: Homo sapiens, normalized to untreated control (vehicle/DMSO)
Procedure: (§3) The prostate cancer cell line 22Rv1 was treated for 48 h with 1 μM Example compound 1, 1/1, 1/2, 2/1, 2/2, 2/3, 2/4, 2/5, 2/6, 2/7, 2/8, 2/9 and 2/10 and the reference compounds SR2211 and XY018 (Nat. Med. 2016; 22:488). RNA was extracted using the RNA isolation kit XS (Macherey-Nagel) and following the manufacture's manual. RNA quantity was measured with the Nanodrop before reverse transcription using Superscript II (Invitrogen #100004925). For the quantitative real-time PCR with SYBR-Green (Qiagen #204074), the following primers were used: AR forward-ACATCAAGGAACTCGATCGTATCATTGC and reverse-TTGGGCACTTGCACAGAGAT, AR-V7: forward-CCATCTTGTCGTCTTCGGAAATGTTATGAAGC and reverse-TTTGAATGAGGCAAGTCAGCCTTTCTT. The qRT-PCR proceeded as follows: denaturation for 5 min 95° C.; 40 cycles of “20 sec at 95° C. and 15 sec at 60° C.” and at the end of the last cycle, the melting temperature of the products was determined by gradually increasing it from 60° C. to 99° C. CT values from all samples were normalized to two different reference (housekeeping) genes using the mean CT value of the GAPDH and YWHAZ (reference genes). Next the values are normalized to the untreated control (vehicle/DMSO).

[3] = test system: IFNγ; assay: Cytokine assay, human PBMC stimulated with PHA: IFNγ; conditions: PHA-activated, 48 hours, read-out: IFNγ inhibition (IC50 range)
Procedure: as §1, §2

[4] = test system: IL-17F; assay: Cytokine assay, human PBMC stimulated with PHA: IL-17F; conditions: PHA-activated, 48 hours, read-out: IL-17F inhibition (IC50 range)
Procedure: as §1, §2

[5] = test system: KLK2 mRNA; assay: Expression of AR target genes (qRT-PCR) in 22Rv1: KLK2; conditions: 22Rv1, 1 μM; for KLK2 mRNA level expression: 48 h; for mrna remaining at 1 µM: Homo sapiens, 48h, relative to vehicle control (DMSO)
Procedure: (§4) The prostate cancer cell line 22Rv1 was treated for 48h with 1 μM Example compound 1, 1/1, 2/1, 2/2, 2/3, 2/4, 2/5, 2/6, 2/7, 2/8, 2/9 and 2/10 and reference compounds SR2211 and XY018. RNA was extracted using the RNA isolation kit XS (Macherey-Nagel) and following the manufacture's manual. RNA quantity was measured with the Nanodrop before reverse transcription using Superscript II (Invitrogen #100004925). For the quantitative real-time PCR with SYBR-Green (Qiagen #204074), the following primers were used:
(§5) qRT-PCR was performed using SYBR-Green (Qiagen #204074) reagents in a PCR cycler (Gorbett Research) Rotor Gene RG3000 with the following program: denaturation for 5′ at 95° C.; 40 cycles of 20″ at 95° C. and 15″ at 60° C.″ and at the end of the last cycle, the melting temperature of the products was determined by gradually increasing from 60° C. to 99° C. CT values from all samples were normalized to reference (housekeeping) genes using the mean CT value of the GAPDH and YWHAZ (reference genes). Next the values are put relative to the untreated control (vehicle/DMSO).

[6] = test system: NKX3.1 mRNA; assay: Expression of AR target genes (qRT-PCR) in 22Rv1: NKX3.1; conditions: Homo sapiens; 22Rv1, 1 μM, 48h; relative to vehicle control (DMSO)
Procedure: as §4, §5

[7] = test system: full length AR (AR-FL) mRNA; assay: Androgen receptor RNA level expression (qRT-PCR) in 22Rv1: AR-FL; conditions: 22Rv1, 1 μM, 48 h; for mrna remaining at 1 µM: Homo sapiens, normalized to untreated control (vehicle/DMSO)
Procedure: as §3

[8] = test system: FKBP5 mRNA; assay: Expression of AR target genes (qRT-PCR) in 22Rv1: FKBP5; conditions: Homo sapiens; 22Rv1, 1 μM, 48h; relative to vehicle control (DMSO)
Procedure: as §4, §5

[9] = target: T1, RORγt (Homo sapiens, UniProt P51449); assay: RORγt inhibition, Indigo Biosciences Human RAR-related Orphan Receptor, Gamma Reporter Assay System; conditions: luciferase reporter cells, 22-24 h incubation; read-out: IC50 range, RORγt assay
T1 sequence (P51449 269-518 limits assumed): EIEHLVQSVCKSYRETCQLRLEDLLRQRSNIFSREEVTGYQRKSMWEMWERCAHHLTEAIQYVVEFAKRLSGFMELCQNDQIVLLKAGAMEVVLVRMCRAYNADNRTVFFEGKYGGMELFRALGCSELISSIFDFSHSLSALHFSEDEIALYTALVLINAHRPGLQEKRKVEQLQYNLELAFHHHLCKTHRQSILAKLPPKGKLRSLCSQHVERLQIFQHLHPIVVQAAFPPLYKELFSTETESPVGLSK
Procedure: The in vitro inhibition of RORγt was measured using Indigo Biosciences Human RAR-related Orphan Receptor, Gamma Reporter Assay System (Product #11304001-32) as described in the technical manual. In brief, 200 μL of Reporter Cells is dispensed into wells of the assay plate and preincubated for 4-6 h. Following the pre-incubation period, culture media are discarded and 200 μL/well of the prepared 1×-concentration treatment media are added. Following 22-24 h incubation, treatment media are discarded and Luciferase Detection Reagent is added. The intensity of light emission (in units of ‘Relative Light Units’; RLU) from each assay well is quantified using a plate-reading luminometer. Average values of RLU were determined for each treatment concentration. Non-linear regression analyses were performed and IC50 values determined using GraphPad Prism software. Provided inverse-agonists ursolic acid served as positive control.

[10] = test system: prostate cancer cell line LNCAP; assay: Oncolead sulforhodamin B growth inhibition, LNCAP; conditions: Homo sapiens, sulforhodamin B assay, 72 and 120 h treatment, read-out: GI50 range LNCAP
Procedure: (§6) Cell growth was assessed by measuring protein content using sulforhodamin B. Growth inhibition was calculated by (TCMD−T0)/TNCT72h−T0)*100% with TCMD is the tumor growth at 72 h with the respective compound concentration. To is the protein content of the cell line before treatment and TNCT72h is the tumor growth of the DMSO control.

[11] = test system: prostate cancer cell line 22RV1; assay: Oncolead sulforhodamin B growth inhibition, 22RV1; conditions: Homo sapiens, sulforhodamin B assay, 72 and 120 h treatment, read-out: GI50 range 22RV1
Procedure: as §6

[12] = test system: prostate cancer cell line PC3; assay: Oncolead sulforhodamin B growth inhibition, PC3; conditions: sulforhodamin B assay; 72 and 120 h treatment; read-out: GI50 range PC3
Procedure: as §6

[13] = test system: prostate cancer cell line VCaP; assay: Oncolead sulforhodamin B growth inhibition, VCaP; conditions: Homo sapiens, VCaP; sulforhodamin B assay; 72 and 120 h treatment; read-out: GI50 range VCAP
Procedure: as §6

[14] = test system: prostate cancer cell line DU145; assay: Oncolead sulforhodamin B growth inhibition, DU145; conditions: Homo sapiens, DU-145; sulforhodamin B assay; 72 and 120 h treatment; read-out: GI50 range DU145
Procedure: as §6

| Compound | IC50 [1] [nM] | AR-V7 mRNA expression [2] | IC50 [3] [nM] | IC50 [4] [nM] | full length AR (AR-FL) mRNA expression [7] | IC50 [9] [nM] | GI50 [10] [nM] | GI50 [11] [nM] | GI50 [12] [nM] | GI50 [13] [nM] | GI50 [14] [nM] | mrna remaining at 1 µM [2] [%] | KLK2 mRNA level expression [5] | mrna remaining at 1 µM [5] [%] | mrna remaining at 1 µM [6] [%] | mrna remaining at 1 µM [7] [%] | mrna remaining at 1 µM [8] [%] |
| --- | --- | --- | --- | --- | --- | --- | --- | --- | --- | --- | --- | --- | --- | --- | --- | --- | --- |
| C[C@H](O)Cn1ncc(-c2onc(-c3cccc(C(=O)N4CCCC4)c3Cl)c2-c2ccncn2)c1C(F)(F)F [2/3] | 25 to 100 | strong reduction | 25 to 100 | 25 to 100 | strong reduction | – | – | – | – | – | – | 25.5 | strong inhibition | 41.1 | 35.7 | 43.4 | 24.5 |
| CC(C)(O)CCn1ncc(-c2onc(-c3cccc(OCCN4CCOCC4)c3Cl)c2-c2ncccn2)c1C(F)(F)F [2/7] | 25 to 100 | strong reduction | < 25 | < 25 | strong reduction | 100 to 1000 | – | – | – | – | – | 22.8 | strong inhibition | 43.6 | 30.5 | 42.5 | 27.5 |
| COc1cccc(-c2noc(-c3cnn([C@H]4C[C@@](C)(O)C4)c3C(F)(F)F)c2COC2CC2)c1Cl [2/9] | < 25 | strong reduction | < 25 | < 25 | strong reduction | – | – | – | – | – | – | 29.3 | – | 41.2 | 48.2 | 49.9 | 31.5 |
| CCOC(=O)c1c(-c2cccc(OC)c2Cl)noc1-c1cnn(CCC(C)(C)O)c1C(F)(F)F [2/10] | < 25 | strong reduction | < 25 | < 25 | strong reduction | – | – | – | – | – | – | 22.7 | strong inhibition | 37.9 | 32.2 | 53.1 | 27.7 |
| CC(C)(O)CCn1ncc(-c2onc(-c3c(F)cccc3Cl)c2-c2ncccn2)c1C(F)F [Example 1/2, 4-(4-(3-(2-Chloro-6-fluorophenyl)-4-(pyrimidin-2-yl)isoxazol-5-yl)-5-(difluoromethyl)-1H-pyrazol-1-yl)-2-methylbutan-2-ol] | – | strong reduction | – | – | strong reduction | 10 to 100 | – | – | – | – | – | 50.9 | – | – | – | 52.4 | – |
| CC(=O)O[C@H]1C(=O)[C@@]2(C)[C@H]([C@H](OC(=O)c3ccccc3)[C@]3(O)C[C@H](OC(=O)[C@H](O)[C@@H](NC(=O)c4ccccc4)c4ccccc4)C(C)=C1C3(C)C)[C@]1(OC(C)=O)CO[C@@H]1C[C@@H]2O [paclitaxel, reference compound] | – | – | – | – | – | – | < 25 | < 25 | < 25 | < 25 | < 25 | – | – | – | – | – | – |

Continued, in another order:

| IC50 [1] [nM] | AR-V7 mRNA expression [2] | IC50 [3] [nM] | IC50 [4] [nM] | full length AR (AR-FL) mRNA expression [7] | IC50 [9] [nM] | GI50 [10] [nM] | GI50 [11] [nM] | GI50 [12] [nM] | GI50 [13] [nM] | GI50 [14] [nM] | Compound | mrna remaining at 1 µM [2] [%] | KLK2 mRNA level expression [5] | mrna remaining at 1 µM [5] [%] | mrna remaining at 1 µM [6] [%] | mrna remaining at 1 µM [7] [%] | mrna remaining at 1 µM [8] [%] |
| --- | --- | --- | --- | --- | --- | --- | --- | --- | --- | --- | --- | --- | --- | --- | --- | --- | --- |
| 25 to 100 | strong reduction | < 25 | < 25 | strong reduction | – | – | – | – | – | – | C[C@]1(O)C[C@@H](n2ncc(-c3onc(-c4c(F)cccc4Cl)c3-c3ccncn3)c2C(F)(F)F)C1 [2/4] | 25.4 | strong inhibition | 42.6 | 35.9 | 43.5 | 29.8 |
| – | – | – | – | – | < 10 | – | – | – | – | – | Fc1cccc(Cl)c1-c1noc(-c2cnn(-c3cccc(Cl)c3)c2C(F)(F)F)c1COC1CC1 [Example 2, 3-(2-Chloro-6-fluorophenyl)-5-(1-(3-chlorophenyl)-5-(trifluoromethyl)-1H-pyrazol-4-yl)-4-(cyclopropoxymethyl)isoxazole] | – | – | – | – | – | – |
| < 25 | strong reduction | < 25 | < 25 | strong reduction | – | – | – | – | – | – | C[C@H](O)Cn1ncc(-c2onc(-c3c(F)cccc3Cl)c2-c2nccs2)c1C(F)(F)F [Example 2/1] | 22.8 | – | 56.9 | 39.9 | 42.4 | 34.4 |
| – | – | – | – | – | – | 100 to 5000 | ≥ 5000 | ≥ 5000 | 100 to 5000 | ≥ 5000 | CNC(=O)c1ccc(N2C(=S)N(c3ccc(C#N)c(C(F)(F)F)c3)C(=O)C2(C)C)cc1F [enzalutamide, reference compound] | – | – | – | – | – | – |
